Test results from paper PMC7433713, “Beyond Single Nucleotide Polymorphisms: CYP3A5^∗3^∗6^∗7 Composite and ABCB1 Haplotype Associations to Tacrolimus Pharmacokinetics in Black and White Renal Transplant Recipients” (Frontiers in Genetics, 2020).
Read-outs that look alike come from different tables or passages of the source. Values belong to the molecule of their own block, whether it stands above or below them.

Legend:
[1] = MPA trough at 12 h in study patients by CYP3A5*3*6*7 metabolic group; conditions: both sexes, human, in vivo, oral, ECMPS at steady state
Description: (§1) Tacrolimus doses were adjusted to 4–9 ng/ml troughs based upon time post-transplant and clinical response using a program-specific minimization protocol. ECMPS was dose adjusted based upon clinical response. Estimated glomerular filtration rate (e-GFR) was calculated using the four-factor MDRD equation ([Levey et al., 1999]). Medication adherence was verified by transplant nurse clinician and medication adherence assessment by transplant pharmacist at enrollment. Ethnicity for two previous generations was verified prior to study.

[2] = 12-h steady-state tacrolimus pharmacokinetics by CYP3A5*3*6*7 metabolic composite group in renal transplant recipients; format: in vivo, human
Description: as §1
Loss of protein function due to any one of these variants can occur independent of allelic status at the other two loci; thus assessment of any single SNP may be misleading as an indicator of enzyme function. Patients were assigned a metabolic composite designation as described earlier ([Campagne et al., 2018]) based upon the combined allelic status at all three independent loci (Figure 1). The Extensive Metabolizer phenotype was assigned to individuals with functional genes on both chromosomes. Patients were assigned the Poor Metabolizer phenotype if they were homozygous for the variant allele at any one of the three SNPs and thus CYP3A5 genes on both chromosomes are non-functional (Figure 1C). Patients were designated as Intermediate Metabolizer if they were heterozygous for one loss of function SNP at any of the three loci (Figure 1B). Finally, for patients who were heterozygous at two or more of the SNPs responsible for loss of function, the level of enzyme is dependent upon the arrangement of the variant alleles on each chromosome (Figure 1D). […] For this analysis double heterozygotes (Figure 1D) were conservatively assigned as an Intermediate Metabolizer since individuals could either be poor or intermediate metabolizers.

[3] = single chromosome; for AUC0–4, phenotypic mean [95% CI] / AUC*, phenotypic mean [95% CI]: race adjusted Thesias; for CL_F, phenotypic mean [95% CI]: sex-adjusted Thesias
Description: (§2) All patients were at steady-state conditions for both tacrolimus and ECMPS. Patients were enrolled only if they had received the same dose of tacrolimus and ECMPS for ≥7 days prior to study. This was assumed to be sufficient to approach steady-state plasma concentrations. Proton pump inhibiters, H2 antagonists and antacids were discontinued at least 36 h prior to study. Patients took immunosuppressives between 5:30 to 6:30 PM prior to study, fasted and abstained from caffeine and alcohol for 12 h prior to study. At 6:00 AM, patients were admitted, vital signs documented and an intravenous angiocatheter inserted. A 0 h sample (∼15 ml) was collected prior to immunosuppressives for drug troughs and laboratory tests (ECMC Clinical Chemistry Laboratory). Oral study medications [(single lot of tacrolimus (Prograf) and ECMPS (Myfortic)] were administered at 7:00 AM. Patients remained upright throughout the study. Standardized low fat meals were provided after 4 h. Antihypertensives were administered after 1.5 h and non-immunosuppressives after 4 h. Blood samples (7 ml) were collected at 0 h and 1, 2, 3, 4, 6, 8, 10, and 12 h after drug administration. Whole blood samples were aliquoted within 30 minutes and stored at −70°C until analysis.
(§3) Given the known linkage among all three ABCB1 SNPs, haplotype analysis was conducted. […] ABCB1 haplotype estimation was determined using the THESIAS program ([Tregouet et al., 2004]; [Tregouet and Garelle, 2007]). THESIAS uses a maximum likelihood algorithm for the simultaneous estimation of haplotype frequencies and their association to tacrolimus pharmacokinetic parameters.
(§4) Tacrolimus troughs and pharmacokinetic concentrations were analyzed within 24 h at the ECMC Clinical Laboratory using the [sequence] tacrolimus assay (Abbott, Abbott Park, IL), a chemiluminescent microparticle immunoassay. The lower limit of detection was 0.5 ng/ml and intraday assay variability was <7%. The calibration standard curve ranged from 1 to 30 ng/ml and quality controls (QC) were 3.0, 12.0, and 25 ng/mL (Bio-Rad, Hercules, CA, United States). The interday coefficient of variation (CV) for each QC was <4% and intra-day CV was <5%. Selected troughs and peaks (N = 40 samples) were analyzed using a validated LCMSMS assay by a CLIA certified external analytical laboratory and compared to the results generated from the [sequence] tacrolimus assay with excellent agreement (R^2 = 0.98). For the tacrolimus LCMSMS assay, the interday and intraday CV were <5% at the low and high concentration QC.
(§5) Pharmacokinetic parameters included area under the concentration versus time curve 0 to 12 h (AUC0–12 h), dose-normalized AUC0–12 (AUC^∗); 12-h trough (C12 h) and peak concentration (Cmax) with dose normalization and time to peak (T max). Oral clearance of tacrolimus was the ratio of dose to AUC0–12 h. Tacrolimus clearances were adjusted for TBW and LBW. AUC0–12 was determined by the linear trapezoidal rule using non-compartmental methods (Phoenix WINNONLIN Version 6.3. Pharsight Corp, Mountain View, Calif). C12 h, Cmax, AUC0–4 h, and AUC0–12 were dose-normalized to 1 mg dose equivalent.

[4] = Tacrolimus pharmacokinetics stratified by CYP3A5 metabolic composite and ABCB1 3435 genotype; format: in vivo, human; conditions: for Tmax / AUC / Cmax / concentration at 12 h / clearance: human, whole blood, oral; for concentration at 12 h: read-out: C12hr; for clearance: read-out: CL/LBW (converted)
Description: To assess the role of both CYP3A5 and ABCB1 variants on tacrolimus pharmacokinetics the CYP3A5 metabolic composite groups and the ABCB1 3435C > T (rs1045642) were included in a single analysis. […] Significant effects of both CYP3A5 and ABCB1 variants on tacrolimus pharmacokinetics was assessed using multivariate analysis of variance.
All patient demographics and tacrolimus pharmacokinetic parameters were summarized by metabolic composite score for CYP3A5^∗3^∗6^∗7 using the mean and standard deviation for continuous variables. The potential trend between metabolic composite genotypes and association to tacrolimus pharmacokinetics were evaluated using the two-sided Jonckheere-Terpstra test for trends ([Jonckheere, 1983]). Post hoc pairwise comparisons were made using Holm-Bonferroni adjusted Wilcoxon rank sum tests (version 9.3, SAS Institute, Cary, NC). Significant combined effects reflecting composite metabolic CYP3A5 and ABCB1 variants on tacrolimus pharmacokinetics was assessed using multivariate analysis of variance ([Littell et al., 2006]). Significant effects are shown in bold.

[5] = clinical; conditions: both, human, whole blood, oral
Description: as §2, §3, §4, §5

[6] = ABCB1 3534 CC, CYP3A5 Extensive (N 6)
[7] = ABCB1 3534 CC, CYP3A5 Intermediate (N 10)
[8] = ABCB1 3534 CC, CYP3A5 Poor (N 13)
[9] = ABCB1 3534 CT and TT, CYP3A5 Extensive (N 6)
[10] = ABCB1 3534 CT and TT, CYP3A5 Intermediate (N 10)
[11] = ABCB1 3534 CT and TT, CYP3A5 Poor (N 20)
[12] = 2.35 mg, ABCB1 3534 CT and TT, CYP3A5 Poor (N 20)
[13] = 2.46 mg, ABCB1 3534 CC, CYP3A5 Poor (N 13)
[14] = 3.55 mg, ABCB1 3534 CT and TT, CYP3A5 Intermediate (N 10)
[15] = 4 mg, ABCB1 3534 CC, CYP3A5 Intermediate (N 10)
[16] = 5.08 mg, ABCB1 3534 CT and TT, CYP3A5 Extensive (N 6)
[17] = 5.67 mg, ABCB1 3534 CC, CYP3A5 Extensive (N 6)

concentration at 12 h ([1]; CYP3A5*3*6*7 Extensive group (N 7)): 42 ng/mL
concentration at 12 h ([1]; CYP3A5*3*6*7 Intermediate group (N 23)): 41 ng/mL
concentration at 12 h ([1]; CYP3A5*3*6*7 Poor group (N 35)): 32 ng/mL
concentration at 12 h ([1]; Overall (N 65)): 37 ng/mL
Structure (SMILES): COc1c(C)c2c(c(O)c1C/C=C(\C)CCC(=O)O)C(=O)OC2 [MPA, mycophenolic acid]

Structure (SMILES): C=CC[C@@H]1/C=C(\C)C[C@H](C)C[C@H](OC)[C@H]2O[C@@](O)(C(=O)C(=O)N3CCCC[C@H]3C(=O)O[C@H](/C(C)=C/[C@@H]3CC[C@@H](O)[C@H](OC)C3)[C@H](C)[C@@H](O)CC1=O)[C@H](C)C[C@@H]2OC [tacrolimus]
patients with 12-h tacrolimus exposures <120 ng.hr/ml ([2]; Blacks, 10/33): 30%
AUC* lower in Extensive than Poor metabolizers ([2]; P < 0.001): 50%
patients with 12-h tacrolimus exposures <120 ng.hr/ml ([2]; Whites, 17/32): 53%
patients exhibiting AUC0–12 h below the recommended therapeutic range ([2]; all patients, in spite of achieving target troughs): approximately 40%
dose normalized trough (Cp12hr/dose), Poor compared to Extensive Metabolizers ([2]; greater in Poor, P = 0.0016): 2.5 fold
dose-adjusted AUC0–12 h, Poor compared to Extensive metabolizers ([2]; higher in Poor, P < 0.001): 2 fold
patients within the therapeutic trough range ([2]; target range >4 ng/ml and <15 ng/ml): 64 of 65
C max/Dose, phenotypic mean [95% CI] ([3]; ABCB1 variant haplotype TTT): 4.06[3.19 – 4.93] ng/ml/mg
AUC0–4, phenotypic mean [95% CI] ([3]; ABCB1 variant haplotype TTT): 43.9 [33.4 – 54.4] ng.hr/ml/mg
AUC*, phenotypic mean [95% CI] ([3]; ABCB1 variant haplotype TTT): 92.2 [74.6 – 109.8] ng.hr/ml/mg
CL_F, phenotypic mean [95% CI] ([3]; ABCB1 variant haplotype TTT): 13.99 [7.87 – 20.11]* L/hr
C max/Dose, phenotypic mean [95% CI] ([3]; ABCB1 wild type haplotype CGC): 3.01[2.42 – 3.59] ng/ml/mg
AUC0–4, phenotypic mean [95% CI] ([3]; ABCB1 wild type haplotype CGC): 36.59 [30.2 – 42.9] ng.hr/ml/mg
AUC*, phenotypic mean [95% CI] ([3]; ABCB1 wild type haplotype CGC): 80.0[68.8 – 91.1] ng.hr/ml/mg
CL_F, phenotypic mean [95% CI] ([3]; ABCB1 wild type haplotype CGC): 20.4 [14.5 – 26.3]* L/hr
AUC0–12 Dose [4, 6]: 23.95 (8.30) ng.hr/ml/mg
C12hr/dose [4, 6]: 1.43 (0.55) ng/ml/mg
CL_F [4, 6]: 48.23 (4.32) L/hr
Cmax/Dose [4, 6]: 3.36 (1.19) ng/ml
AUC0–12 Dose [4, 7]: 36.76 (6.43) ng.hr/ml/mg
AUC* [4, 7]: 130.75 (9.73) ng.hr/ml
C12hr/dose [4, 7]: 2.16 (0.43) ng/ml/mg
CL_F [4, 7]: 31.30 (3.35) L/hr
Cmax/Dose [4, 7]: 5.21 (0.92) ng/ml
AUC0–12 Dose [4, 8]: 56.39 (5.64) ng.hr/ml/mg
C12hr/dose [4, 8]: 3.44 (0.37) ng/ml/mg
CL_F [4, 8]: 22.61 (2.94) L/hr
Cmax/Dose [4, 8]: 7.20 (0.81) ng/ml
AUC0–12 Dose [4, 9]: 28.97 (8.30) ng.hr/ml/mg
AUC* [4, 9]: 129.45 (12.57) ng.hr/ml
C12hr/dose [4, 9]: 1.57 (0.55) ng/ml/mg
CL_F [4, 9]: 39.53 (4.32) L/hr
Cmax/Dose [4, 9]: 4.95 (1.19) ng/ml
AUC0–12 Dose [4, 10]: 42.94 (6.43) ng.hr/ml/mg
C12hr/dose [4, 10]: 2.40 (0.43) ng/ml/mg
CL_F [4, 10]: 24.49 (3.35) L/hr
Cmax/Dose [4, 10]: 6.61 (0.92) ng/ml
AUC0–12 Dose [4, 11]: 56.80 (4.55) ng.hr/ml/mg
C12hr/dose [4, 11]: 3.30 (0.30) ng/ml/mg
CL_F [4, 11]: 20.09 (2.37) L/hr
Cmax/Dose [4, 11]: 8.09 (0.65) ng/ml
effect of ABCB1 3435 T allele on tacrolimus clearance ([4]; across all 3 CYP3A5 metabolic composite groups, P = 0.040): significantly reduced
Tmax ([4]; both sexes, 2.46 mg, ABCB1 3534 CC, CYP3A5 Poor (N 13)): 1.94 h
Tmax ([4]; both sexes, 4 mg, ABCB1 3534 CC, CYP3A5 Intermediate (N 10)): 1.87 h
Tmax ([4]; both sexes, 5.67 mg, ABCB1 3534 CC, CYP3A5 Extensive (N 6)): 1.78 h
AUC ([4]; 2.35 mg, ABCB1 3435 CT and TT, CYP3A5 Poor (N 20)): 118 ng·h/mL
Cmax [4, 12]: 17 ng/mL
Tmax [4, 12]: 1.72 h
concentration at 12 h [4, 12]: 6.81 ng/mL
clearance [4, 12]: 6.5 mL/min/kg
AUC ([4]; 2.46 mg, ABCB1 3435 CC, CYP3A5 Poor (N 13)): 117 ng·h/mL
Cmax [4, 13]: 15.7 ng/mL
concentration at 12 h [4, 13]: 6.94 ng/mL
clearance [4, 13]: 6.17 mL/min/kg
AUC ([4]; 3.55 mg, ABCB1 3435 CT and TT, CYP3A5 Intermediate (N 10)): 150 ng·h/mL
Cmax [4, 14]: 23.3 ng/mL
Tmax [4, 14]: 2.29 h
concentration at 12 h [4, 14]: 8.37 ng/mL
clearance [4, 14]: 6.83 mL/min/kg
Cmax [4, 15]: 18.6 ng/mL
concentration at 12 h [4, 15]: 7.55 ng/mL
clearance [4, 15]: 9.17 mL/min/kg
Cmax [4, 16]: 23.7 ng/mL
Tmax [4, 16]: 2.03 h
concentration at 12 h [4, 16]: 6.58 ng/mL
clearance [4, 16]: 13.2 mL/min/kg
AUC ([4]; 5.67 mg, ABCB1 3435 CC, CYP3A5 Extensive (N 6)): 122 ng·h/mL
Cmax [4, 17]: 17 ng/mL
concentration at 12 h [4, 17]: 7.4 ng/mL
clearance [4, 17]: 15 mL/min/kg
clearance ([5]; 1.58 mg): 6 mL/min/kg
clearance ([5]; 2.45 mg): 8 mL/min/kg
